Measurements from ChEMBL document CHEMBL5291721, “A preclinical secondary pharmacology resource illuminates target-adverse drug reaction associations of marketed drugs” (Nat Commun, 2023).

Assays:
[1] = target: Gamma-aminobutyric acid receptor subunit alpha-1/alpha-2/beta-2/gamma-2 (Homo sapiens, UniProt P14867+P18507+P47869+P47870); format: protein-complex assay
[2] = target: Sodium-dependent serotonin transporter (Homo sapiens, UniProt P31645)
[3] = target: 5-hydroxytryptamine receptor 2B (Homo sapiens, UniProt P41595)
[4] = target: T1, Progesterone receptor (Homo sapiens, UniProt P06401)
T1 sequence (P06401 whole entry): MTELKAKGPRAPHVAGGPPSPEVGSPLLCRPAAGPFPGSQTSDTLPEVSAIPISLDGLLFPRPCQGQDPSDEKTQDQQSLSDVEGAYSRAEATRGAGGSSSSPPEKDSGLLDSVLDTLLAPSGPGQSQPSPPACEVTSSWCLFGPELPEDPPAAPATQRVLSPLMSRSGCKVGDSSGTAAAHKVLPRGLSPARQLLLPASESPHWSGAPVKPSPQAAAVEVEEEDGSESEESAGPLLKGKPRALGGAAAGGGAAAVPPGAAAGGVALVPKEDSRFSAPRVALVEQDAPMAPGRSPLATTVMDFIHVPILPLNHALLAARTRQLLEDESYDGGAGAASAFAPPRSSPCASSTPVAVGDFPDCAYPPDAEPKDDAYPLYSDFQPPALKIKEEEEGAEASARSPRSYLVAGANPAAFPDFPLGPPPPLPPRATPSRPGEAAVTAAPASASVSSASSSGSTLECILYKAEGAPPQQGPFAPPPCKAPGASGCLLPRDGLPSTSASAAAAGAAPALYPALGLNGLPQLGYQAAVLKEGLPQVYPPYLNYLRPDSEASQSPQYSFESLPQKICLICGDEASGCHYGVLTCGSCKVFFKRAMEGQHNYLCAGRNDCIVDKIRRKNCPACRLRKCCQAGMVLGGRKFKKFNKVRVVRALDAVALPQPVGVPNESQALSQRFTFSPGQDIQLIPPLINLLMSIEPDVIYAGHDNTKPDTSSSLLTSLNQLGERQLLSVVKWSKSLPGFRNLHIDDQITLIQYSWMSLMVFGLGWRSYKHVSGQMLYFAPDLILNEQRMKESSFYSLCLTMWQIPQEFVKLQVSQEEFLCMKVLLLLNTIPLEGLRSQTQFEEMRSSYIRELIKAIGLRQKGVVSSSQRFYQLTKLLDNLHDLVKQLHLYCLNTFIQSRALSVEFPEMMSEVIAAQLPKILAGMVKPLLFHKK

[5] = target: T2, 5-hydroxytryptamine receptor 1A (Homo sapiens, UniProt P08908)
T2 sequence (P08908 whole entry): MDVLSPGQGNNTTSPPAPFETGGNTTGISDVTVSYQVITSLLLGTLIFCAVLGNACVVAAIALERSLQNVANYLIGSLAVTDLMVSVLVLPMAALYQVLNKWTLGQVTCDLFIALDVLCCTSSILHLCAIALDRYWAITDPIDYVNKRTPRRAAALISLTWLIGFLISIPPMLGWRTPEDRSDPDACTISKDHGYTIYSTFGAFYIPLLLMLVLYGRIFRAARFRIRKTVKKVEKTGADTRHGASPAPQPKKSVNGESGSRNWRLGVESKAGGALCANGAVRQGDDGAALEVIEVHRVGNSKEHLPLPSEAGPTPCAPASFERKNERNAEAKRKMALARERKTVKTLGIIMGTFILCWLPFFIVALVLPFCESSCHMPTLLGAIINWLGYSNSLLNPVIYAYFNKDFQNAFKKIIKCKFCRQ

[6] = target: Gamma-aminobutyric acid receptor subunit alpha-1 (Rattus norvegicus, UniProt P62813)
[7] = target: Glucagon receptor (Homo sapiens, UniProt P47871)
[8] = target: T3, B1 bradykinin receptor (Homo sapiens, UniProt P46663)
T3 sequence (P46663 whole entry): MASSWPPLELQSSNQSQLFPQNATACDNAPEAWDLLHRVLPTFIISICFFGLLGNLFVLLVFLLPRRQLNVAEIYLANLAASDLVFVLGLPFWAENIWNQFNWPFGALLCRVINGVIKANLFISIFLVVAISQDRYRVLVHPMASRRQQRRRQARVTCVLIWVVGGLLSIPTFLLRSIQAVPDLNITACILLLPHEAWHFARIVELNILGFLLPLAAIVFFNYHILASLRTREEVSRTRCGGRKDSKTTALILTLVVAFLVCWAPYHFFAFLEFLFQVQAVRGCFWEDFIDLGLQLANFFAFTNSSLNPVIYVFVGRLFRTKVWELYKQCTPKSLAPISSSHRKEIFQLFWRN

[9] = target: Neurotensin receptor type 1 (Homo sapiens, UniProt P30989)
[10] = target: T4, Neuropeptide Y receptor type 2 (Homo sapiens, UniProt P49146)
T4 sequence (P49146 whole entry): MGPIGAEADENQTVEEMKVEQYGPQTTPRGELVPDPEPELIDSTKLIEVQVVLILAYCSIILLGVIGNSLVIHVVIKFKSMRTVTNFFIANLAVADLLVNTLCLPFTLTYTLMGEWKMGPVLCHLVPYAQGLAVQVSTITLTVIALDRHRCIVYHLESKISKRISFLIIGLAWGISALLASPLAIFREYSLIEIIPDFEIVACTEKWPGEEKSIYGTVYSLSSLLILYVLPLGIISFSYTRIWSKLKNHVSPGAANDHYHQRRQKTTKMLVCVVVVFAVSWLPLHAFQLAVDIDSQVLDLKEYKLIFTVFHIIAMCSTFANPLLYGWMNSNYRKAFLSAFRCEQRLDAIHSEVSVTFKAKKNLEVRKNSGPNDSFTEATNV

[11] = target: T5, Endothelin receptor type B (Homo sapiens, UniProt P24530)
T5 sequence (P24530 whole entry): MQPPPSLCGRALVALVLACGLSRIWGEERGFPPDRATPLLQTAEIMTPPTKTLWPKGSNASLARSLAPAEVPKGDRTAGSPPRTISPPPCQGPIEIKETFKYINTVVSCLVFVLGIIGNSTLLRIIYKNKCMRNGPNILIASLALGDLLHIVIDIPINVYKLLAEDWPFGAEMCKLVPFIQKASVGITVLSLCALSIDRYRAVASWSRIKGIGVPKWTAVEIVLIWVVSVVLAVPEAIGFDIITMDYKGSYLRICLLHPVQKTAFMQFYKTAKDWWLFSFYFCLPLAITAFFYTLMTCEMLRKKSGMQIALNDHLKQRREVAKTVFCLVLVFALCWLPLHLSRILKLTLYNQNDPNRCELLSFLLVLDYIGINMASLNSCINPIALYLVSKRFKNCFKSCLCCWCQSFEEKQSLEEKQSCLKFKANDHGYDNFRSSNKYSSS
Also: assay procedure not described here.

Gamma-aminobutyric acid receptor subunit alpha-1/alpha-2/beta-2/gamma-2, sequence (P14867 whole entry): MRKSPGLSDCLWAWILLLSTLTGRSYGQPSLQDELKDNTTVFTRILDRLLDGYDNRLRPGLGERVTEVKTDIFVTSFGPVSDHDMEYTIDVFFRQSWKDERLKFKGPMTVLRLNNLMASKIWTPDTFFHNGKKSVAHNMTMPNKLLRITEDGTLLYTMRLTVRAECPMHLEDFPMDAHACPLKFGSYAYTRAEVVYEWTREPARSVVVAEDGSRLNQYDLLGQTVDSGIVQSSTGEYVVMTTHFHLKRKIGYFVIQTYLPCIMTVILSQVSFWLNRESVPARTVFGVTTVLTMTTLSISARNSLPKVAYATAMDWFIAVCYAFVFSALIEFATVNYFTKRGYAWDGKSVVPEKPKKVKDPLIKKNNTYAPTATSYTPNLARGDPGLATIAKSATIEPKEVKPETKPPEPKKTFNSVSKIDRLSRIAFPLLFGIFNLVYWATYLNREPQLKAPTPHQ
Gamma-aminobutyric acid receptor subunit alpha-1/alpha-2/beta-2/gamma-2, sequence (P47870 whole entry): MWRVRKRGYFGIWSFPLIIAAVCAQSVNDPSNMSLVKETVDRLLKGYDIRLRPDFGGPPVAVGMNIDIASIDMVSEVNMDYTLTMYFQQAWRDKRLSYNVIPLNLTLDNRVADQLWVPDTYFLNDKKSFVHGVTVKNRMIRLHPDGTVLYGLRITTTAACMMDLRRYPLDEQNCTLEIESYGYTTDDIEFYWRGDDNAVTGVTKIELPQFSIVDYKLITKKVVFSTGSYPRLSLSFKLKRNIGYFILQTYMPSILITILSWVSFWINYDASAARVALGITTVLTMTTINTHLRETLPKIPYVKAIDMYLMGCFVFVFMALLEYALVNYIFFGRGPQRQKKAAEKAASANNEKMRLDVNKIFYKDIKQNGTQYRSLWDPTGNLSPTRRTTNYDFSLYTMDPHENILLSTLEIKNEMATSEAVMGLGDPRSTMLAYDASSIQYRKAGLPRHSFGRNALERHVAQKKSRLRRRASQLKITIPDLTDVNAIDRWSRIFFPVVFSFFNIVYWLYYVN
Gamma-aminobutyric acid receptor subunit alpha-1/alpha-2/beta-2/gamma-2, sequence (P18507 whole entry): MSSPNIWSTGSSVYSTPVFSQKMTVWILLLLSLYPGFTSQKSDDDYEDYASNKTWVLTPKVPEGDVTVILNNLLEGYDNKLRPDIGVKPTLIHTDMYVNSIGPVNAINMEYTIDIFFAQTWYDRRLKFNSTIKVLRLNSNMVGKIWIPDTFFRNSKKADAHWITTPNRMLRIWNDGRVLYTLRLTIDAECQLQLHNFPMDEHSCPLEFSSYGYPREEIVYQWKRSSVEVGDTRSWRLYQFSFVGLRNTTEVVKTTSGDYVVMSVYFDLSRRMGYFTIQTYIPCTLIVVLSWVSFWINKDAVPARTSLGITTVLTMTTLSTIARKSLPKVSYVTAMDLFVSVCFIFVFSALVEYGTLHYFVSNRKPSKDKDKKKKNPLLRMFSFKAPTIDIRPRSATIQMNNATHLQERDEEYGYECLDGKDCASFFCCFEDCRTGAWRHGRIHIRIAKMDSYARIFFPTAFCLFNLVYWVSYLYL
Gamma-aminobutyric acid receptor subunit alpha-1/alpha-2/beta-2/gamma-2, sequence (P47869 whole entry): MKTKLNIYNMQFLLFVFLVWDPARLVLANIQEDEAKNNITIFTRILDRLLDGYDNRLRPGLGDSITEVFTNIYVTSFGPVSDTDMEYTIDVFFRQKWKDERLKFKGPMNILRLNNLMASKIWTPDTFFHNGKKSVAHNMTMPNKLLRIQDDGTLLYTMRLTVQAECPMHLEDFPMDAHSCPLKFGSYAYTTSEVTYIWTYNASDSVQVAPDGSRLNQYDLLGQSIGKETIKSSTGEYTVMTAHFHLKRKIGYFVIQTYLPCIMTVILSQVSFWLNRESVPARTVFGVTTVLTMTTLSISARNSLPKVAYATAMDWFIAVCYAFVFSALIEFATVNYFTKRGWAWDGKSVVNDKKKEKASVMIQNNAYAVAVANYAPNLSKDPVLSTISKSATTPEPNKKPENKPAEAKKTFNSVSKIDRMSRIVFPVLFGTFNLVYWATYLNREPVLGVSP
5-hydroxytryptamine receptor 2B, sequence (P41595 whole entry): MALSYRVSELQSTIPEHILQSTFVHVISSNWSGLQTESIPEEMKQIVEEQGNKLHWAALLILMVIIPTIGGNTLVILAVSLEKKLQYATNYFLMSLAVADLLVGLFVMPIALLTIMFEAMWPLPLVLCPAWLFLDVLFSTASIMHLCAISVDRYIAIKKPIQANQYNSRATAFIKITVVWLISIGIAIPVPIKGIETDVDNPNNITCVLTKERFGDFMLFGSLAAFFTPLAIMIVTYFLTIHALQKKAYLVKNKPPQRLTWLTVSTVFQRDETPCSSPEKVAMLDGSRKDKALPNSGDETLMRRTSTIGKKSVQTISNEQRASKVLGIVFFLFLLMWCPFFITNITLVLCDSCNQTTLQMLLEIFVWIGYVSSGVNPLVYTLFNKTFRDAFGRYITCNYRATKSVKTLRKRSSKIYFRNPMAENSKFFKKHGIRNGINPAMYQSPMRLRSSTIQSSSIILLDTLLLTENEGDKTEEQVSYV
Gamma-aminobutyric acid receptor subunit alpha-1, sequence (P62813 whole entry): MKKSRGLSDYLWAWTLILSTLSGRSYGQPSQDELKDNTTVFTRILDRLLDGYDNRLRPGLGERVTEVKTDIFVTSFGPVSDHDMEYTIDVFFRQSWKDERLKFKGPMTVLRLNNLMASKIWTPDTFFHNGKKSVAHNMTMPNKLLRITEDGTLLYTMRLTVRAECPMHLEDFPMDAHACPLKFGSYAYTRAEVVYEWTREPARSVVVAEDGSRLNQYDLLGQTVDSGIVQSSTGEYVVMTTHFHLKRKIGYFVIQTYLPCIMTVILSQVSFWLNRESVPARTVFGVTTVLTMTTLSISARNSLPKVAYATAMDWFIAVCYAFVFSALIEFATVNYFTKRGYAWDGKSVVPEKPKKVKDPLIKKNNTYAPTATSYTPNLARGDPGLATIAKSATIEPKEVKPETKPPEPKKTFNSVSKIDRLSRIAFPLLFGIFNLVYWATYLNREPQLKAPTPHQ
Sodium-dependent serotonin transporter, sequence (P31645 whole entry): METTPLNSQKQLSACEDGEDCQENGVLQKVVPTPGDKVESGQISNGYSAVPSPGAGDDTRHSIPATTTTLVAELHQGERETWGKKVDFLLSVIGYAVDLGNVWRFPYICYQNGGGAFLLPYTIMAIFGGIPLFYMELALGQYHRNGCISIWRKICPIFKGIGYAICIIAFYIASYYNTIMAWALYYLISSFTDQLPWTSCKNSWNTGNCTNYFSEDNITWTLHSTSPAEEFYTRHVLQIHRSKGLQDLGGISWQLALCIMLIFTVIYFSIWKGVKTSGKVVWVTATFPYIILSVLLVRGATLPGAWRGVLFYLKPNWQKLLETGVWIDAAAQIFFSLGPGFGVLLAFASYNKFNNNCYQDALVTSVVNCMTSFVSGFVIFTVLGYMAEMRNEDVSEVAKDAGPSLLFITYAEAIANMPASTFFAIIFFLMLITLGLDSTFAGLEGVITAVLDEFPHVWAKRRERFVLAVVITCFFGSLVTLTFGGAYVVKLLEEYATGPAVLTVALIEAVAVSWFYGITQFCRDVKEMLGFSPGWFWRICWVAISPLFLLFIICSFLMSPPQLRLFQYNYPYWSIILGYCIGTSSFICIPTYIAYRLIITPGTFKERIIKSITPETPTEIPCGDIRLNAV
Glucagon receptor, sequence (P47871 whole entry): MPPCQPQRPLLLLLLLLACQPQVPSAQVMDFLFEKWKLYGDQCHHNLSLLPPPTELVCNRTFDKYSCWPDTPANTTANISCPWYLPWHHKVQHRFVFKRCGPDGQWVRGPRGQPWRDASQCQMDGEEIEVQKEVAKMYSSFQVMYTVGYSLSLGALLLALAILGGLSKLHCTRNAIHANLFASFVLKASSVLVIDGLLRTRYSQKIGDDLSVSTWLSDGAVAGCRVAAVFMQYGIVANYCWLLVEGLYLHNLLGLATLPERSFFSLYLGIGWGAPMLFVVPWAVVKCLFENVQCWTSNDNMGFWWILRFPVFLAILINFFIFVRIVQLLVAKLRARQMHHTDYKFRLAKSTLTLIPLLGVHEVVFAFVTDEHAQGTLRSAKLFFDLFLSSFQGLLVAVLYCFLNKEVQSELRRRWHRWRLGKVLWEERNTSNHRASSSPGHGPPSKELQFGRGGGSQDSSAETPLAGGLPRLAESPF
Neurotensin receptor type 1, sequence (P30989 whole entry): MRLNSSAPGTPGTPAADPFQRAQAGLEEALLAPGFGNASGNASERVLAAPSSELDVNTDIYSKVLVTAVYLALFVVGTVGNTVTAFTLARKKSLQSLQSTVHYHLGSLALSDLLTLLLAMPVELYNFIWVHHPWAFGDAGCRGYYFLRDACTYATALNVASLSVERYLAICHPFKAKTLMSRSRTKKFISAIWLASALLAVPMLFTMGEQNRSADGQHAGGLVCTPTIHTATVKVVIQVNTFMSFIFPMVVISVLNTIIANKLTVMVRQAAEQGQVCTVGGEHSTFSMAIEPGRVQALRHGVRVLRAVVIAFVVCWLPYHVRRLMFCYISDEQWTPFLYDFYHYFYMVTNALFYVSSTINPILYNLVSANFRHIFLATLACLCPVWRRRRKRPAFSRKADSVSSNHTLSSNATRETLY

Row | Compound | AC50 [1] | AC50 [2] | AC50 [6] | other results
1 | CC(C)N(CCNC(=O)CN1CCCC1=O)C(C)C | > 30 µM | > 30 µM | – | –
2 | CCC[C@H](NC(=O)[C@@H]1[C@H]2CCC[C@H]2CN1C(=O)[C@@H](NC(=O)[C@@H](NC(=O)c1cnccn1)C1CCCCC1)C(C)(C)C)C(=O)C(=O)NC1CC1 | – | – | – | AC50 [3]: > 10 µM; AC50 [4]: > 30 µM; AC50 [5]: > 10 µM
3 | Cc1cc(N)c2ccccc2[n+]1CCCCCCCCCC[n+]1c(C)cc(N)c2ccccc21 | – | 0.185 µM | 24.6 µM | –
4 | CCOC(=O)[C@H](CCc1ccccc1)N[C@@H](C)C(=O)N(CC(=O)O)C1Cc2ccccc2C1 | – | > 30 µM | > 30 µM | –
5 | C=CCSCC1Nc2cc(Cl)c(S(N)(=O)=O)cc2S(=O)(=O)N1 (stereo unspecified) [ALTHIAZIDE] | – | > 30 µM | > 30 µM | –
6 | CCN(CCCc1ccccc1)CCCc1ccccc1 [ALVERINE] | > 30 µM | 1.7 µM | – | –
7 | CN1CCC(=C2c3ccccc3CCc3cccnc32)CC1 [AZATADINE] | – | – | – | AC50 [4]: > 30 µM; AC50 [5]: 5.69 µM
8 | CC(C)COCC(CN(Cc1ccccc1)c1ccccc1)N1CCCC1 (stereo unspecified) [BEPRIDIL] | – | – | – | AC50 [7]: > 30 µM; AC50 [8]: > 30 µM; AC50 [9]: > 30 µM; AC50 [10]: > 30 µM; AC50 [11]: > 30 µM; AC50 [4]: > 30 µM
9 | CCCCC(=O)O[C@]1(C(=O)CO)[C@@H](C)C[C@H]2[C@@H]3CCC4=CC(=O)C=C[C@]4(C)[C@@]3(F)[C@@H](O)C[C@@]21C [BETAMETHASONE VALERATE] | – | – | – | AC50 [4]: 0.13 µM; AC50 [5]: > 10 µM
10 | COc1cc(N2CCC(N3CCN(C)CC3)CC2)ccc1Nc1ncc(Cl)c(Nc2ccccc2P(C)(C)=O)n1 [BRIGATINIB] | – | > 30 µM | > 30 µM | –
11 | CN(C)CCOC(c1ccccc1)c1ccc(Br)cc1 (stereo unspecified) [BROMODIPHENHYDRAMINE] | – | 0.207 µM | > 30 µM | –
12 | CNC1=Nc2ccc(Cl)cc2C(c2ccccc2)=[N+]([O-])C1 [CHLORDIAZEPOXIDE] | – | – | – | AC50 [4]: > 30 µM; AC50 [5]: > 10 µM
13 | CC(=O)O[C@]1(C(C)=O)CC[C@H]2[C@@H]3C=C(Cl)C4=CC(=O)CC[C@]4(C)[C@H]3CC[C@@]21C [CHLORMADINONE ACETATE] | – | – | > 30 µM | –
14 | NC(=O)OCC(O)COc1ccc(Cl)cc1 (stereo unspecified) [CHLORPHENESIN CARBAMATE] | – | > 30 µM | > 30 µM | –
15 | COc1cc(N)c(Cl)cc1C(=O)NC1CCN(Cc2ccccc2)CC1 [CLEBOPRIDE] | – | – | – | AC50 [3]: 0.0079 µM
16 | Cc1ccccc1N1CCN(CCc2nnc3n2CCCC3)CC1 [DAPIPRAZOLE] | > 30 µM | – | – | –
17 | CCN(CC)C(=S)S [DITIOCARB] | – | > 30 µM | > 30 µM | –
18 | C=C1CC[C@H](O)C/C1=C/C=C1\CCC[C@]2(C)[C@@H]([C@H](C)/C=C/[C@H](C)C(C)C)CC[C@@H]12 [ERGOCALCIFEROL] | – | – | > 30 µM | –
19 | CC(C(=O)O)c1ccc(-c2ccccc2)c(F)c1 (stereo unspecified) [FLURBIPROFEN] | – | – | > 30 µM | –
20 | CCC(=O)O[C@]1(C(=O)CCl)[C@@H](C)C[C@H]2[C@@H]3C[C@H](F)C4=CC(=O)C=C[C@]4(C)[C@@]3(F)[C@@H](O)C[C@@]21C [HALOBETASOL PROPIONATE] | > 30 µM | > 30 µM | – | –
21 | CC(N)Cc1ccc(O)cc1 (stereo unspecified) [HYDROXYAMPHETAMINE] | – | > 30 µM | > 30 µM | –
22 | Cc1cc(NC(=O)C2=C(O)c3ccccc3S(=O)(=O)N2C)no1 [ISOXICAM] | – | > 30 µM | > 30 µM | –

Row | Compound | AC50 [1] | AC50 [2] | AC50 [6] | other results
23 | COc1cc2c(cc1OC)CC(=O)N(CCCN(C)C[C@H]1Cc3cc(OC)c(OC)cc31)CC2 [IVABRADINE] | – | 11.9 µM | > 30 µM | –
24 | Oc1ccc2c(c1)CC[C@H](c1ccccc1)[C@@H]2c1ccc(OCCN2CCCC2)cc1 [LASOFOXIFENE] | – | – | – | AC50 [3]: 0.272 µM
25 | CC(C)(C)NC[C@H](O)COc1cccc2c1CCCC2=O [LEVOBUNOLOL] | > 30 µM | – | – | –
26 | Cc1c(N(C)CS(=O)(=O)O)c(=O)n(-c2ccccc2)n1C [METAMIZOLE] | > 30 µM | – | – | –
27 | CN1C(=O)/C(=N\NC(N)=S)c2ccccc21 [METHISAZONE] | – | > 30 µM | 12.3 µM | –
28 | COC(=O)c1ccc(O)cc1 [METHYLPARABEN] | > 30 µM | – | – | –
29 | CN(C)CCCNc1c2ccccc2nc2cccc([N+](=O)[O-])c12 [NITRACRINE] | – | – | – | AC50 [3]: 0.2 µM
30 | O=[N+]([O-])c1ccc(O)c2ncccc12 [NITROXOLINE] | – | > 30 µM | > 30 µM | –
31 | CCCc1nc(C(C)(C)O)c(C(=O)O)n1Cc1ccc(-c2ccccc2-c2nnn[nH]2)cc1 [OLMESARTAN] | > 30 µM | > 30 µM | – | –
32 | NCC(CC(=O)O)c1ccccc1 (stereo unspecified) [PHENIBUT] | – | > 30 µM | > 30 µM | –
33 | CC[C@@H]([C@H](C)O)n1ncn(-c2ccc(N3CCN(c4ccc(OC[C@@H]5CO[C@@](Cn6cncn6)(c6ccc(F)cc6F)C5)cc4)CC3)cc2)c1=O [POSACONAZOLE] | – | – | > 30 µM | –
34 | CCCN[C@H]1CCc2nc(N)sc2C1 [PRAMIPEXOLE] | – | – | – | AC50 [5]: 10.5 µM
35 | Cc1ncc(COP(=O)(O)O)c(C=O)c1O [PYRIDOXAL PHOSPHATE ANHYDROUS] | > 30 µM | > 30 µM | – | –
36 | COc1ccc(CN(CCN(C)C)c2ccccn2)cc1 [PYRILAMINE] | – | – | > 30 µM | –
37 | c1ccc2c(c1)CCc1ccccc1N2C1CN2CCC1CC2 (stereo unspecified) [QUINUPRAMINE] | > 30 µM | 0.507 µM | – | –
38 | C[C@H](Cc1cc2c(c(C(N)=O)c1)N(CCCO)CC2)NCCOc1ccccc1OCC(F)(F)F [SILODOSIN] | > 30 µM | > 30 µM | – | –
39 | CC1=CCC(C(C)(C)O)CC1O (stereo unspecified) [SOBREROL] | > 30 µM | > 30 µM | – | –
40 | CCOC(=O)N1CSC[C@H]1C(=O)O [TELMESTEINE] | > 30 µM | > 30 µM | – | –
41 | CCCC(CCC)C(N)=O [VALPROMIDE] | – | – | – | AC50 [4]: > 30 µM; AC50 [5]: > 10 µM
42 | CCOC(=O)C1=C[C@]2(CC)CCCN3CCc4c(n1c1ccccc41)[C@@H]32 [VINPOCETINE] | – | – | – | AC50 [3]: > 30 µM
43 | Cc1cc(C(C)(C)C)cc(C)c1CC1=NCCN1 [XYLOMETAZOLINE] | – | – | – | AC50 [3]: 1.56 µM
